Results from patent US9428536B2, “Immunostimulatory G, U-containing oligoribonucleotides” (Zoetis Belgium SA, priority 2002, dated 2016).

What was measured:
[1] = tested on: human PBMC; test: Human PBMC IL-12 p40 secretion, ELISA; format: cell-based
Experimental: Human peripheral blood mononuclear cells (PBMCs) were isolated from healthy donors, plated at 3×10^5 cells/well, stimulated in vitro with various test and control immunostimulatory agents for 16 hours, and then analyzed by enzyme-linked immunosorbent assay (ELISA) using matched antibody pairs from BD-Pharmingen for secreted cytokines IL-12 p40 and TNF-α, performed according to the manufacturer's protocol. Also included were certain negative controls, including medium alone and DOTAP (10 μg/200 μl culture well; “Liposomes”) alone. The control immunostimulatory agents included the imidazoquinolone R-848 (2 μg/ml), lipopolysaccharide (LPS; 1 μg/ml), Pam3Cys (5 μg/ml), poly IC (50 μg/ml), and CpG DNA (50 μg/ml). These are reported ligands for TLR7, TLR4, TLR2, TLR3, and TLR9, respectively. Test immunostimulatory agents included the following RNA molecules, each at 50 μg/ml, with and without DOTAP (10 μg total “with Liposomes” and “without Liposomes”, respectively): GUGUUUAC alone; GUAGGCAC alone; GUGUUUAC in combination with GUAGGCAC; GUAGGA; GAAGGCAC; CUAGGCAC; CUCGGCAC; and CCCCCCCC. These RNA oligonucleotides each contained a phosphorothioate linkage between the penultimate and 3′ terminal nucleoside.
The experiments described in the preceding example were repeated with varied concentrations of RNA oligonucleotides in order to assess the dose-response behavior of human PBMCs to G,U-containing RNA oligonucleotides of the invention. A total of 10, 3 or 1 μg RNA was added to 10 μg DOTAP and then added to the 200 μl culture wells. After 16 hours IL-12 p40 and TNF-α ELISAs were performed as described in Example 1. […]
RNA oligomers GUGUGUGU, GUGUGUG, GUGUGU, GUGUG, GUGU, GUG, and GU, with and without DOTAP, were added over a range of concentrations to overnight cultures of human PBMC. Culture supernatants were harvested, and human TNF-α, IL-12 p40, and IFN-α were measured by ELISA using matched antibody pairs from BD-Pharmingen according to the manufacturer's protocol. […]

[2] = tested on: wild type murine macrophages; test: Wild type murine macrophages in the presence of IFN-γ, IL-12 p40 ELISA; format: cell-based, mouse; details: FIG. 6 Panel A, 12 hours, RNA with DOTAP
Experimental: The following murine cells were isolated and incubated with various RNAs and other known TLR ligands in order to assess species-, cell type-, and signaling pathway-specificity: wild type macrophages in the presence of IFN-γ; MyD88-deficient macrophages in the presence of IFN-γ; J774 (mouse macrophage cell line); and RAW 264.7 (mouse macrophage cell line, e.g., ATCC TIB-71). Murine bone macrophages were generated from wild type or MyD88-deficient C57BL/6 mice by culturing bone marrow cells with 50 ng/ml M-CSF for 5 days. Cells were seeded at 25,000 cells/well and treated with 20 ng/ml IFN-γ for 16 hours. The murine macrophage cell lines RAW and J774 were seeded at 10,000 cells/well.
The following test and control agents were examined: R-848 (2 μg/ml), ODN 1668 (CpG DNA; 5′-[…]-3′; SEQ ID NO:7); LPS (1 μg/ml); poly IC (50 μg/ml); Pam3Cys (5 μg/ml); Ionomycin/TPA; the following RNA molecules, each with (“+Lipo”) and without DOTAP (10 μg/200 μl culture well): GUGUUUAC alone (RNA1); GUAGGCAC alone (RNA2); GUGUUUAC in combination with GUAGGCAC (RNA1/2); […] (RNA6; SEQ ID NO:8); […] (RNA9; SEQ ID NO:9); and the following DNA molecules, corresponding to RNA1, RNA2, and RNA1/2: GTGTTTAC alone (DNA1); GTAGGCAC alone (DNA2); and GTGTTTAC in combination with GTAGGCAC (DNA1/2). These RNA and DNA oligonucleotides each contained a phosphorothioate linkage between the penultimate and 3′ terminal nucleoside. RNA6 and RNA9 each contained in addition a phosphorothioate linkage between the penultimate and 5′ terminal nucleoside. RNA6 corresponds to a ribosomal RNA stem loop derived from Listeria monocytogenes. RNA9 corresponds to a stem loop derived from human immunodeficiency virus (HIV, an RNA retrovirus). The cells were cultured for 12 hours and supernatants were harvested. Murine IL-12 p40, IL-6, and TNF-α were measured by ELISA using matched antibody pairs from BD-Pharmingen according to the manufacturer's protocol.

`CCOCc1nc2c(N)nc3ccccc3c2n1CC(C)(C)O` [R-848, 4-amino-α,α-dimethyl-2-ethoxymethyl-1H-imidazo[4,5-c]quinoline-1-ethanol, reference compound] was tested, and the “IL-12 p40 response of human PBMC (in words)” value ([1]; Example 1, FIG. 1, 16 hours, RNA 50 μg/ml with and without DOTAP, R-848 2 μg/ml, LPS 1 μg/ml, Pam3Cys 5 μg/ml, poly IC 50 μg/ml) was “responsive”, the “effect of DOTAP on the amount of IL-12 p40 secreted” value ([1]; Example 4, FIG. 5, presence versus absence of DOTAP, 16 hour incubation) was “about the same immunostimultory effect” and the “IL-12 p40 secretion by wild type murine macrophages” value [2] was “significant amounts”.
